Key:
[1] = tested on: PML-RARα fusion protein; assay: Western blot for PML-RARα in PR9 cells with zinc; type: cell-based, human
Protocol: (A) NB-4 myeloid leukemia cell lines were treated with paricalcitol (0.1 μM) and/or arsenic trioxide (0.6 μM) for 3 days. Control cells were treated with vehicle alone. Cell lysates were made and used for Western blot which was probed sequentially with antibodies to RARA to detect the fusion protein PML-RARα. (B) U937 cells were stably transfected with either the control MT vector (U937-PMT) or the PML-RARα cDNA under the control of the Zn2^+-inducible murine metallothionein 1 promoter (PR9). Cells were treated either with (+) or without (−) Zn for 2 days. Paricalcitol and/or arsenic trioxide of the indicated doses were added to the cells. […] (C) U937-PMT and PR9 cells were treated either with or without Zn and with paricalcitol, and/or arsenic trioxide as indicated for 3 days, and CD14 expression was measured by flow cytometry.
Western blot analysis was performed as follows: cells were washed twice in PBS, suspended in lysis buffer (50 mM Tris at pH 8.0, 150 mM NaCl, 0.1% SDS, 0.5% sodium deoxycholate, 1% Nonidet P-40, phenylmethylsulfonyl fluoride at 100 μg/mL, aprotinin at 2 μg/mL, pepstatin at 1 μg/mL, and leupetin at 10 μg/mL), and placed on ice for 30 minutes. […] Protein concentrations were quantitated by using the Bio-Rad protein Assay Dye Reagent Concentrate (Bio-Rad Laboratories, Hercules, Calif.) according to the manufacture's recommendation. […]

[2] = tested on: U937 cells expressing PML-RARA (PR9); assay: CD14 expression by flow cytometry, PR9 cells with zinc; type: cell-based, human; conditions: paricalcitol 0.01 μM; 3 days; compared to PR9 without zinc
Protocol: (A) NB-4 myeloid leukemia cell lines were treated with paricalcitol (0.1 μM) and/or arsenic trioxide (0.6 μM) for 3 days. Control cells were treated with vehicle alone. Cell lysates were made and used for Western blot which was probed sequentially with antibodies to RARA to detect the fusion protein PML-RARα. (B) U937 cells were stably transfected with either the control MT vector (U937-PMT) or the PML-RARα cDNA under the control of the Zn2^+-inducible murine metallothionein 1 promoter (PR9). Cells were treated either with (+) or without (−) Zn for 2 days. Paricalcitol and/or arsenic trioxide of the indicated doses were added to the cells. Cell lysates were harvested and used for Western blot which was probed with antibodies to RARα to detect PML-RARα fusion protein ([…]). (C) U937-PMT and PR9 cells were treated either with or without Zn and with paricalcitol, and/or arsenic trioxide as indicated for 3 days, and CD14 expression was measured by flow cytometry.
Cell lines used in this study were obtained from American Type Culture Collection (Rockville, Md.) and were maintained according to their recommendations. Myeloid leukemia cell lines (HL-60, NB-4, THP-1, U937), lymphoma cell lines (Raji, Ramos, Daudi, Jurkat, Jeko-1, JUDHL), myeloma cell lines (RPMI-8226, ARH-77, NCI-H929), ovarian cancer cell lines and PC-3 prostate cell line were grown in RPMI 1640 with 10% FCS. […]

[3] = tested on: mononuclear bone marrow cells from wild type (WT) mice; assay: Colony-forming assay in methylcellulose, wild type mice; type: cell-based; conditions: 10^−8 M
Text: In FIG. 6D, colony formation by mononuclear bone marrow cells from VDR knock-out (VDR-KO) and wild type (WT) mice is shown. Mononuclear cells were obtained from femoral bone marrow plugs and grown in methylcellulose culture media with either paricalcitol (10^−8M) or diluant. Colonies were counted on day 10 of culture. The number of total colonies (average) were 87 (control) and 66 (paricalcitol 10^−8M) in wild type mice, and 110 (control) and 122 (paricalcitol 10^−8M) in VDR-KO mice. The percentage of macrophage, granulocyte and mixed granulocyte/macrophage colonies are shown. Triplicate wells for each mouse and a total of three KO and three WT mice were studied. G, granulocyte colonies; G/M mixed granulocyte/macrophage colonies; M, macrophage colonies.
The VDR KO Mouse and Colony-Forming Assay was performed as follows. VDR KO mice were generated and genotypes were determined by Southern Blot Analysis as described previously (O'Kelly et al., supra, 2002). For experiments using VDR KO mice, their wild-type (WT) littermates were used as controls. Mice were killed by cervical neck dislocation. Bone marrow was flushed out of isolated femurs with (a-MEM; Gibco BRL, Grand Island, N.Y., USA) including 10% FCS using a 26-gauge needle. Isolated spleens were injected with DMEM (Gibco BRL) plus 10% FCS and crushed with forceps to release cells. Mononuclear cells from bone marrow or spleen were separated by Ficoll-Hypaque density centrifugation (Amersham Pharmacia, Uppsala, Sweden). Resuspended mononuclear bone marrow cells (2×10^4 cells/ml) and growth factors were added 1:10 to methylcellulose medium M3234 (StemCell Technologies Inc., Vancouver, British Columbia, Canada) to yield a final concentration of 1% methylcellulose, 30% FCS, 1% BSA, 10^-4M mercaptoethanol, and 2 mM L-glutamine as described previously (19). Cells were plated in six-well plates in a volume of 1 ml and incubated at 37° C. in a humidified atmosphere containing 5% CO2. Colonies were counted after 2 weeks. Colony type was established by morphology; and to ensure accurate determination, representative colonies were plucked from the plates, centrifuged onto slides, stained with Wright-Giemsa stain and examined by light microscopy.

[4] = tested on: ARH-77 myeloma cells; assay: MTT assay; type: cell-based, human
[5] = tested on: THP-1 myeloid leukemia cells; assay: MTT assay; type: cell-based, human; conditions: 4 day exposure
[6] = tested on: 24-hydroxylase mRNA; assay: RT-PCR of 24-hydroxylase mRNA, spleen mononuclear cells of VDR knock-out mice; type: cell-based; conditions: cells from VDR−/− mice; 10^−8 M
Protocol: Expression of 24 hydroxylase mRNA was analysed by RT-PCR. The amounts of mRNA were normalized by comparison to 18S RNA. For the PCR analysis, RNA extraction and reverse transcription were done by TRIzole (Invitrogen, Carlsbad, Calif.) and reverse transcriptase (Promega, Madison, Wis.). A twenty-microliter volume of cDNA was prepared from 1 μg of RNA. cDNAs were amplified by PCR with specific primers for 24-hydroxylase and 18S. The cycle number was 25 for 18S and 32 for 24-hydroxylase. PCR product was separated on a 2% agarose gel, stained with ethidium bromide, and photographed.

Molecule	concentration at which PML-RARα protein expression was barely detectable ([1]; PR9 cells with zinc)	protein level of PML-RARa induced by zinc ([1]; PR9 cells, dose dependent)	differentiation (CD14) of PR9 cells cultured with zinc [2]	percentage of granulocyte colonies ([3]; control 23±4%) [%]	percentage of macrophage colonies ([3]; control 32±4%) [%]	percentage of mixed colonies ([3]; control 43±7%) [%]	number of total colonies (average) ([3]; control 87)	antiproliferative effect [4]	antiproliferative effect by MTT assay [5]	induction of 24-hydroxylase [6]
arsenic trioxide	over 0.4 μM	decreased the protein level of PML-RARa	–	–	–	–	–	–	–	–
C[C@H](/C=C/[C@H](C)C(C)(C)O)[C@H]1CC[C@H]2/C(=C/C=C3C[C@@H](O)C[C@H](O)C3)CCC[C@]12C [paricalcitol, 19-nor-1,25, (OH)2D3]	–	–	partially blocked	6±3	69±2	25±5	66	somewhat less than the effect on NCI-H929 cells	sensitive	not inducible

Reference: patent publication US20050054620A1, “Paricalcitol as a chemotherapeutic agent” (priority 2003, published 2005)
